The NIST ThermoML archive (doi:10.1016/j.jct.2018.03.013)

Experiment: xn = mol fraction of the nth substance listed
Details: 100 kPa, Liquid; for speed of sound: Frequency=3 MHz, Linear variable-path acoustic interferometer; for mass density: Pycnometric method

C=C(C)C(=O)OCCCC [butyl 2-methyl-2-propenoate] + CC#N
Details	mass density [kg/m3]	speed of sound [m/s]
293.15 K, x2 = 0	895.19	1241.7
293.15 K, x2 = 0.0681	892.7	1244.4
293.15 K, x2 = 0.1359	889.93	1247.2
293.15 K, x2 = 0.1976	887.12	1249.7
293.15 K, x2 = 0.2728	883.27	1252.7
293.15 K, x2 = 0.3442	879.11	1255.5
293.15 K, x2 = 0.4143	874.45	1258.2
293.15 K, x2 = 0.4658	870.61	1260.3
293.15 K, x2 = 0.5243	865.72	1262.7
293.15 K, x2 = 0.5649	861.96	1264.5
293.15 K, x2 = 0.639	854.15	1268.1
293.15 K, x2 = 0.7112	845.09	1272.2
293.15 K, x2 = 0.7836	834.14	1277.3
293.15 K, x2 = 0.8558	820.72	1283.7
293.15 K, x2 = 0.928	803.86	1292.4
298.15 K, x2 = 0	890.48	1222.1
298.15 K, x2 = 0.0681	887.98	1224.8
298.15 K, x2 = 0.1359	885.2	1227.6
298.15 K, x2 = 0.1976	882.38	1230
298.15 K, x2 = 0.2728	878.51	1232.9
298.15 K, x2 = 0.3442	874.33	1235.5
298.15 K, x2 = 0.4143	869.65	1238.2
298.15 K, x2 = 0.4658	865.78	1240.2
298.15 K, x2 = 0.5243	860.86	1242.5
298.15 K, x2 = 0.5649	857.08	1244.2
298.15 K, x2 = 0.639	849.22	1247.7
298.15 K, x2 = 0.7112	840.11	1251.6
298.15 K, x2 = 0.7836	829.09	1256.4
298.15 K, x2 = 0.8558	815.6	1262.6
298.15 K, x2 = 0.928	798.66	1271
303.15 K, x2 = 0	885.78	1202.4
303.15 K, x2 = 0.0681	883.27	1205.3
303.15 K, x2 = 0.1359	880.47	1208.1
303.15 K, x2 = 0.1976	877.64	1210.5
303.15 K, x2 = 0.2728	873.75	1213.3
303.15 K, x2 = 0.3442	869.55	1216
303.15 K, x2 = 0.4143	864.84	1218.7
303.15 K, x2 = 0.4658	860.95	1220.7
303.15 K, x2 = 0.5243	856.01	1223.1
303.15 K, x2 = 0.5649	852.2	1224.8
303.15 K, x2 = 0.639	844.3	1228.3
303.15 K, x2 = 0.7112	835.14	1232.3
303.15 K, x2 = 0.7836	824.06	1237.2
303.15 K, x2 = 0.8558	810.49	1243.5
303.15 K, x2 = 0.928	793.46	1252
308.15 K, x2 = 0	881.07	1183
308.15 K, x2 = 0.0681	878.55	1185.9
308.15 K, x2 = 0.1359	875.74	1188.7
308.15 K, x2 = 0.1976	872.89	1191.2
308.15 K, x2 = 0.2728	868.98	1194.1
308.15 K, x2 = 0.3442	864.75	1196.8
308.15 K, x2 = 0.4143	860.01	1199.4
308.15 K, x2 = 0.4658	856.1	1201.4
308.15 K, x2 = 0.5243	851.13	1203.8
308.15 K, x2 = 0.5649	847.3	1205.6
308.15 K, x2 = 0.639	839.36	1209.1
308.15 K, x2 = 0.7112	830.15	1213.1
308.15 K, x2 = 0.7836	819.01	1218.1
308.15 K, x2 = 0.8558	805.37	1224.4
308.15 K, x2 = 0.928	788.25	1233
313.15 K, x2 = 0	876.35	1163.8
313.15 K, x2 = 0.0681	873.82	1166.7
313.15 K, x2 = 0.1359	871	1169.6
313.15 K, x2 = 0.1976	868.13	1172.1
313.15 K, x2 = 0.2728	864.2	1175
313.15 K, x2 = 0.3442	859.95	1177.7
313.15 K, x2 = 0.4143	855.18	1180.4
313.15 K, x2 = 0.4658	851.24	1182.4
313.15 K, x2 = 0.5243	846.24	1184.8
313.15 K, x2 = 0.5649	842.39	1186.6
313.15 K, x2 = 0.639	834.41	1190.2
313.15 K, x2 = 0.7112	825.14	1194.2
313.15 K, x2 = 0.7836	813.95	1199.3
313.15 K, x2 = 0.8558	800.24	1205.7
313.15 K, x2 = 0.928	783.04	1214.3
318.15 K, x2 = 0	871.64	1145.7
318.15 K, x2 = 0.0681	869.11	1148.6
318.15 K, x2 = 0.1359	866.27	1151.5
318.15 K, x2 = 0.1976	863.39	1154
318.15 K, x2 = 0.2728	859.43	1156.9
318.15 K, x2 = 0.3442	855.15	1159.6
318.15 K, x2 = 0.4143	850.35	1162.3
318.15 K, x2 = 0.4658	846.39	1164.3
318.15 K, x2 = 0.5243	841.36	1166.7
318.15 K, x2 = 0.5649	837.49	1168.4
318.15 K, x2 = 0.639	829.46	1171.9
318.15 K, x2 = 0.7112	820.14	1175.9
318.15 K, x2 = 0.7836	808.89	1180.9
318.15 K, x2 = 0.8558	795.11	1187.3
318.15 K, x2 = 0.928	777.83	1195.8
